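A five-concentration, 48-hour dose response in 96-well plates underlies each endpoint, interpolated linearly between surrounding concentrations. GI50 = concentration required for 50% inhibition of growth.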 Activity calls are given as the source filed them. No stated cut-off is given here; in the data, active = GI50 up to about 1.1 µM and inactive = higher.
Assays:
Assay in all cases: NCI tumour cell line growth inhibition, 48 h
[1] = system: RPMI-8226
[2] = system: HCT-116
[3] = system: HCT-15
[4] = system: OVCAR-4
[5] = system: MCF7
[6] = system: CAKI-1
[7] = system: COLO 205
[8] = system: TK-10
[9] = system: OVCAR-5
[10] = system: MDA-N
[11] = system: OVCAR-8
[12] = system: BT-549
[13] = system: HT-29
[14] = system: MDA-MB-231
[15] = system: LOX IMVI
[16] = system: IGROV-1
[17] = system: NCI-H226

SMILES | GI50 [1] | GI50 [2] | GI50 [3] [µM] | GI50 [4] | GI50 [5] | GI50 [6] | GI50 [7] | GI50 [8] | GI50 [9] | GI50 [10] | GI50 [11] | GI50 [12] | GI50 [13] | GI50 [14] | GI50 [15] | GI50 [16] | GI50 [17]
C=CCOc1ccc(C2c3c(n[nH]c3O)CC(C)(O)C2C(=O)OC)cc1OC (stereo unspecified) | > 100 µM (inactive) | > 100 µM (inactive) | > 100 | > 100 µM (inactive) | > 100 µM (inactive) | > 100 µM (inactive) | > 100 µM (inactive) | > 100 µM (inactive) | > 100 µM (inactive) | > 100 µM (inactive) | > 100 µM (inactive) | > 100 µM (inactive) | > 100 µM (inactive) | > 100 µM (inactive) | > 100 µM (inactive) | > 100 µM (inactive) | 
CN(C)CC1CN=C(N)O1 (stereo unspecified) | > 100 µM (inactive) | > 100 µM (inactive) | > 100 | > 100 µM (inactive) | > 100 µM (inactive) | > 100 µM (inactive) | > 100 µM (inactive) | > 100 µM (inactive) | > 100 µM (inactive) | > 100 µM (inactive) |  |  |  | > 100 µM (inactive) | > 100 µM (inactive) |  | > 100 µM (inactive)
CC1(C)OCC=CCO1 | > 100 µM (inactive) | > 100 µM (inactive) |  | > 100 µM (inactive) | 56 µM (inactive) | > 100 µM (inactive) | > 100 µM (inactive) | > 100 µM (inactive) | > 100 µM (inactive) | > 100 µM (inactive) | > 100 µM (inactive) | > 100 µM (inactive) | > 100 µM (inactive) |  | 50.9 µM (inactive) | > 100 µM (inactive) | > 100 µM (inactive)
N#Cc1c2c(c(Nc3ccc(F)cc3)n3c1nc1ccccc13)CCCC2 | 10.5 µM (inactive) | 20 µM (inactive) | > 100 | > 87.3 µM (inactive) | > 32.5 µM (inactive) | > 52.2 µM (inactive) | > 22.1 µM (inactive) | 18.9 µM (inactive) | > 100 µM (inactive) | > 28.6 µM (inactive) | > 67.3 µM (inactive) | > 91.6 µM (inactive) | > 100 µM (inactive) | > 100 µM (inactive) |  | > 59.3 µM (inactive) | > 80 µM (inactive)
Cc1ccc(NC(=O)c2cc3ccccc3c(/N=N/c3cc(S(=O)(=O)O)ccc3O)c2O)c(C)c1 | 15 µM (inactive) | 29.9 µM (inactive) | 9.33 | 12.7 µM (inactive) |  | 32.5 µM (inactive) | 36.8 µM (inactive) | 25.1 µM (inactive) | 16.2 µM (inactive) | 32.2 µM (inactive) | 17.5 µM (inactive) | 17.8 µM (inactive) | 12.4 µM (inactive) | 26.1 µM (inactive) | 32.4 µM (inactive) | 16.3 µM (inactive) | 15.4 µM (inactive)
Cc1cc2c(cc1C)[n+]([O-])c(C(=O)N1CCN(c3ccc([N+](=O)[O-])cc3)CC1)c(C)[n+]2[O-] | > 100 µM (inactive) | 28.9 µM (inactive) | 77.6 | > 100 µM (inactive) | > 100 µM (inactive) | > 100 µM (inactive) | > 100 µM (inactive) | 18.1 µM (inactive) | 62.8 µM (inactive) | > 100 µM (inactive) | 27.5 µM (inactive) | 22.6 µM (inactive) | > 100 µM (inactive) | 21.8 µM (inactive) | 90.2 µM (inactive) | 27.6 µM (inactive) | 
COc1cc(C2c3cc4c(cc3[C@@H](Nc3ccc(F)cc3)C3COC[C@H]23)OCO4)cc(OC)c1O (stereo partly specified) | 1.49 µM (inactive) | 2.07 µM (inactive) | 2.48 | 11.7 µM (inactive) | 1.1 µM (active) |  | 4.73 µM (inactive) | 5.9 µM (inactive) | 3.62 µM (inactive) | 7.66 µM (inactive) | 2.8 µM (inactive) |  | 3.44 µM (inactive) | 2.74 µM (inactive) |  | 11.9 µM (inactive) | 
CC1(C)CCSC(/C=C/c2ccccc2)=N1 | 17.7 µM (inactive) | 13.6 µM (inactive) | 9.77 | 16 µM (inactive) | 12.3 µM (inactive) | 14.8 µM (inactive) |  | 18.2 µM (inactive) | 20.2 µM (inactive) | 12.4 µM (inactive) | 15.5 µM (inactive) | 7.14 µM (inactive) | 18.4 µM (inactive) | 15.7 µM (inactive) | 13.7 µM (inactive) | 20.6 µM (inactive) | 
COc1cc2c(cc1OC)C1=C(C=O)c3ccc(OC)c(OC)c3C(O)N1CC2 (stereo unspecified) | 7.53 µM (inactive) | 30.5 µM (inactive) | 30.8 | 40.3 µM (inactive) | 32.6 µM (inactive) | 31.2 µM (inactive) | 20.7 µM (inactive) | 20.9 µM (inactive) | 31.7 µM (inactive) | 31.5 µM (inactive) |  | 22.2 µM (inactive) | 21.4 µM (inactive) | 16.3 µM (inactive) |  |  | 66.5 µM (inactive)
CC[C@@H]1ON(C)[C@H]2CN(C)C(=O)[C@@H]12 | > 100 µM (inactive) | > 100 µM (inactive) | > 100 | > 100 µM (inactive) | > 100 µM (inactive) | > 100 µM (inactive) | > 100 µM (inactive) | > 100 µM (inactive) | > 100 µM (inactive) | > 100 µM (inactive) | > 100 µM (inactive) |  | > 100 µM (inactive) | > 100 µM (inactive) | > 100 µM (inactive) | > 100 µM (inactive) | > 100 µM (inactive)
COc1cc2cc(C(=O)N3C[C@@H](CCl)c4c3cc(N)c3ccccc43)[nH]c2c(OC)c1OC | 0.0076 µM (active) | 0.000301 µM (active) | 0.000579 | 0.826 µM (active) | 0.00145 µM (active) | 0.004 µM (active) | 0.0776 µM (active) | < 0.01 µM (active) | < 0.01 µM (active) | 0.000296 µM (active) | 0.00451 µM (active) | 0.0442 µM (active) | 0.0735 µM (active) | 0.00172 µM (active) | 0.00313 µM (active) | 0.00611 µM (active) | 
CC(C)(C)[Si](C)(C)OC1(CCc2ccccc2OS(=O)(=O)C(F)(F)F)CCCC=C1COCc1ccccc1 (stereo unspecified) | 2.95 µM (inactive) | 3.33 µM (inactive) | 12.5 | 6.05 µM (inactive) | 19.1 µM (inactive) | > 100 µM (inactive) | 5.85 µM (inactive) | > 100 µM (inactive) |  |  |  | > 100 µM (inactive) |  | > 100 µM (inactive) | 4.31 µM (inactive) | 4.81 µM (inactive) | 46.1 µM (inactive)
CN1C2CCC1CC(CCNC(c1ccccc1)c1ccccc1)C2 (stereo unspecified) | 20.2 µM (inactive) | 18.3 µM (inactive) | 33.7 | > 100 µM (inactive) |  | 59.7 µM (inactive) | 11.5 µM (inactive) | 22.2 µM (inactive) | > 100 µM (inactive) | 12.6 µM (inactive) | 57 µM (inactive) | 49.3 µM (inactive) | 15.2 µM (inactive) | 22.2 µM (inactive) | 20.2 µM (inactive) | 62.7 µM (inactive) | 36.9 µM (inactive)
CC1(CO)OC(n2cnc3cncnc32)CC1O (stereo unspecified) | > 100 µM (inactive) | > 100 µM (inactive) | > 100 | > 100 µM (inactive) | > 100 µM (inactive) | > 100 µM (inactive) | > 100 µM (inactive) | > 100 µM (inactive) | > 100 µM (inactive) | > 100 µM (inactive) | > 100 µM (inactive) | > 100 µM (inactive) | > 100 µM (inactive) | > 100 µM (inactive) |  | > 100 µM (inactive) | > 100 µM (inactive)
C=C1C[C@@H]2CC[C@@]34CC5O[C@H]6C(O[C@H]7CC[C@H](CC(=O)O[C@@H]8[C@@H](C)[C@@H]9O[C@@H]%10C[C@]%11(C[C@@H]%12O[C@]%13(C[C@H](C)[C@@H]%14O[C@@H]%15CC(C(COC(C)=O)OC(C)=O)O[C@@H]%15C[C@@H]%14O%13)C[C@H](C)[C@@H]%12O%11)O[C@@H]%10C[C@@H]9O[C@H]8CC8O[C@@H](CC[C@@H]1O2)C[C@@H](C)C8(O)CO)O[C@@H]7[C@@H]6O3)[C@H]5O4 (stereo partly specified) | 0.413 µM (active) | 0.292 µM (active) | 0.527 | > 1 µM (active) | 0.249 µM (active) | 0.652 µM (active) | 0.311 µM (active) | > 0.36 µM (active) | > 1 µM (active) |  | 0.668 µM (active) | 0.0908 µM (active) |  | > 0.776 µM (active) | 0.432 µM (active) | 0.371 µM (active) | 0.45 µM (active)
N=C(N)N/N=C/c1c(-c2ccc(Cl)c([N+](=O)[O-])c2)nc2sc(Cl)cn12 | 2.99 µM (inactive) | 3.38 µM (inactive) | 2.29 | 2.04 µM (inactive) | 2.39 µM (inactive) | 2.34 µM (inactive) | 1.64 µM (inactive) | 28.8 µM (inactive) | 4.17 µM (inactive) |  | 1.77 µM (inactive) | 1.69 µM (inactive) | 2.36 µM (inactive) | 1.97 µM (inactive) | 2.44 µM (inactive) | 1.65 µM (inactive) | 41.4 µM (inactive)
COC(=O)/C(C#N)=C(\N)c1c(C)c2ccccc2oc1=N | > 100 µM (inactive) | > 100 µM (inactive) | > 100 | > 100 µM (inactive) | > 100 µM (inactive) | > 10 µM (inactive) | > 100 µM (inactive) | > 100 µM (inactive) | > 100 µM (inactive) | > 100 µM (inactive) |  | 64.6 µM (inactive) |  | 86.7 µM (inactive) | > 100 µM (inactive) | > 100 µM (inactive) | 
CC(C)(C)OC(=O)N1CCC(NC(=O)NC2CCN(C(=O)OC(C)(C)C)CC2)CC1 | > 100 µM (inactive) | > 100 µM (inactive) | > 100 | > 100 µM (inactive) | > 100 µM (inactive) | > 100 µM (inactive) |  | > 100 µM (inactive) | > 100 µM (inactive) | > 100 µM (inactive) | > 100 µM (inactive) | 0.118 µM (active) | > 100 µM (inactive) | > 100 µM (inactive) | > 100 µM (inactive) | > 100 µM (inactive) | 
